Reference: ChEMBL document CHEMBL4043210, “Synthesis of amide isosteres of schweinfurthin-based stilbenes” (2017)

Test: Growth inhibition of human NCI60 cells by sulforhodamine B assay
Format: functional

| SMILES | GI50 [µM] |
| --- | --- |
| COc1cc(NC(=O)c2cc(OC)c3ccn(C)c3c2)cc2c1O[C@]1(C)CC[C@@H](O)C(C)(C)[C@H]1C2 | 6.6 |
| COc1cc(NC(=O)c2cc(O)c(C/C=C(\C)CCC=C(C)C)c(O)c2)cc2c1O[C@]1(C)CC[C@@H](O)C(C)(C)[C@H]1C2 | 1.1 |
| COc1cc(C(=O)Nc2cc(OC)c3ccn(C)c3c2)cc2c1O[C@]1(C)CC[C@@H](O)C(C)(C)[C@H]1C2 | 0.66 |
| COc1cc(C(=O)Nc2cc(O)c(C/C=C(\C)CCC=C(C)C)c(O)c2)cc2c1O[C@]1(C)CC[C@@H](O)C(C)(C)[C@H]1C2 | 0.21 |
| COc1cc(/C=C/c2cc(O)c(C/C=C(\C)CCC=C(C)C)c(O)c2)cc2c1O[C@]1(C)CC[C@@H](O)C(C)(C)[C@H]1C2 [3-DEOXYSCHWEINFURTHIN B] | 0.87 |
| CC(C)=CCC/C(C)=C/Cc1c(O)cc(/C=C/c2cc(O)c3c(c2)C[C@@H]2C(C)(C)[C@H](O)[C@H](O)C[C@@]2(C)O3)cc1O [SCHWEINFURTHIN A] | 0.36 |
